Laboratory results from ChEMBL document CHEMBL1140378, “Fast small molecule similarity searching with multiple alignment profiles of molecules represented in one-dimension” (J Med Chem, 2005).

Legend:
[1] = target: Mitogen-activated protein kinase 14 (Homo sapiens, UniProt Q16539); experiment: Inhibitory activity against Mitogen-activated protein kinase 14, p38-alpha; No activity
[2] = target: T1, Glucagon receptor (Homo sapiens, UniProt P47871); experiment: Antagonist activity against glucagon receptor; type: functional
[3] = target: T1, Glucagon receptor; experiment: Antagonist activity against glucagon receptor; […]; type: functional

T1 sequence (P47871 whole entry): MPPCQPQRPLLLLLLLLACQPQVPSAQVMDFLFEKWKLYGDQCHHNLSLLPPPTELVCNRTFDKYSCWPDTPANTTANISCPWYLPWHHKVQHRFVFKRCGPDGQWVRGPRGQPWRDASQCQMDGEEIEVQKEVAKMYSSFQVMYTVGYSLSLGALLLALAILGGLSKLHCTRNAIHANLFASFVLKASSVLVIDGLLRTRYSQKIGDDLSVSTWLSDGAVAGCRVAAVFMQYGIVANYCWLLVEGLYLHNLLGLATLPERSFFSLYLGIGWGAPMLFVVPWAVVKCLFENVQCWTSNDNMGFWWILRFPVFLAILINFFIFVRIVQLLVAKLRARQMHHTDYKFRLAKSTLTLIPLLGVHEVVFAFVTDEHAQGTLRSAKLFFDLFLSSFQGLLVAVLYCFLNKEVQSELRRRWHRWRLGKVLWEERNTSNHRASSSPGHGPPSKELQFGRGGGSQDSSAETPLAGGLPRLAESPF
Mitogen-activated protein kinase 14, sequence (Q16539 whole entry): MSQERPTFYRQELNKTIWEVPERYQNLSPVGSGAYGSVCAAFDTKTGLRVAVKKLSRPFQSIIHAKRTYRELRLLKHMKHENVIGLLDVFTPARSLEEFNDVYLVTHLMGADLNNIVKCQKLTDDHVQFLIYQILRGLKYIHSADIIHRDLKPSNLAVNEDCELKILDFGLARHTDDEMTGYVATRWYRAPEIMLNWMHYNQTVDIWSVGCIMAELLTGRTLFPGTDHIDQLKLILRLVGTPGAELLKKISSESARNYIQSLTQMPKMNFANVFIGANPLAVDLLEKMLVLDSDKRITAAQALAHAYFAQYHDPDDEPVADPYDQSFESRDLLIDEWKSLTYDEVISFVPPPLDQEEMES

Row | SMILES | IC50 [1] | IC50 [2] [µM] | IC50 [3]
1 | CC(C)c1cc(-c2ccc(Cl)cc2)[nH]c1-c1ccncc1 | Not Active | 0.032 | –
2 | O=C(O)c1ccc(-c2cc(-c3ccc(F)cc3)c(-c3ccncc3)[nH]2)cc1 | – | – | Not Active
